According to publication PMC11313193, “Which Constituents Determine the Antioxidant Activity and Cytotoxicity of Garlic? Role of Organosulfur Compounds and Phenolics” (International Journal of Molecular Sciences, 2024):

Tests used:
[1] = ABTS^● decolorization assay; conditions: 30 min incubation at room temperature, absorbance at 734 nm
Experimental: A modification of the ABTS^● decolorization assay was employed. Briefly, various volumes of solutions of the studied compounds were introduced to wells of a 96-well microplate, each prefilled 200 μL of ABTS^● solution. […] The drop in absorbance after 30 min incubation at room temperature was read as a measure of the antioxidant activity.
(§1) All assays were standardized with respect to Trolox. The antioxidant activity was calculated in each case as a ratio of the slope of the dependence of absorbance change on the concentration of a studied compound to the slope of the dependence of absorbance change of standard samples concerning Trolox on the concentration of Trolox. Antioxidant activities were expressed in moles of Trolox equivalents (TE)/mol of a studied compound, as described previously.

[2] = DPPH^● decolorization assay; conditions: 30 min at ambient temperature in the dark, absorbance at 517 nm
Experimental: The assay was performed as described in a previous article. Briefly, increasing volumes of solutions of the studied compounds were introduced to wells of a 96-well microplate, each with 200 μL of 0.3 mM DPPH^● solution in methanol. The reaction was allowed to proceed for 30 min at ambient temperature in the dark, and absorbance at 517 nm was read. The absorbance decrease was a measure of the antioxidant activity.
as §1

[3] = Ferric reducing antioxidant power (FRAP) assay; conditions: 30 min at ambient temperature, pH 3.6, absorbance at 593 nm
Experimental: The method proposed by Benzie and Strain [91] was employed with a slight modification. Briefly, increasing volumes of solutions of the studied compounds were added to wells of a 96-well microplate prefilled with 200 μL of the working solution composed of 0.3 M acetate buffer, pH 3.6 (10 volumes), 10 mM 2,4,6-tris(2-pyridyl)-s-triazine (TPTZ), in 40 mM HCl (1 volume) and 20 mM FeCl3 (1 volume), was prepared immediately before use. After 30 min incubation at ambient temperature and the absorbance of the Fe^2+-TPTZ complex was read at 593 nm.
as §1

[4] = test system: SKOV-3 ovarian cancer cells; test: Cytotoxicity (Neutral Red), SKOV-3 cells; assay type: cell-based, human; conditions: 24 h exposure
Experimental: (§2) The PEO1 cells, SKOV-3 cells, and MRC-5 cells were grown at 37 °C and 5% CO2 in RPMI + GlutaMAX medium, McCoy’s 5A medium, and the DMEM + GlutaMAX medium, respectively. The media were supplemented with 10% heat-inactivated fetal calf serum and penicillin/streptomycin. The cell viability was evaluated using the Trypan Blue exclusion test.
(§3) In the cytotoxicity experiments, cells were grown in wells of sterile 96-well plates. The seeding density was 1 × 10^4 for SKOV-3 and MRC-5 cells and 1.5 × 10^4 for PEO1 cells. The cells were allowed to grow in the incubator for 24 h. Then, the medium was removed and new medium with an examined compound was added. The stock solutions of the compounds studied diluted with the appropriate cell medium were filtered before the addition to the cells using 0.22 µm filters. No more than 0.02% of DMSO was present in the media, and it had no discernible impact on the treated cells. Cells not exposed to any compound served as a control. After another 24 h incubation, the medium was gently aspirated, and the wells were added with 2% sterile Neutral Red solution (100 µL). The plates were then incubated (37 °C, 5% CO2) for one hour. The Neutral Red solution was aspirated, and the wells were washed two times with warm (37 °C) PBS. Subsequently, 100 µL of a permeabilization mixture (water/ethanol/glacial acetic acid, 50/49/1, v/v/v) was introduced to each well. The plates were shaken at 700 rpm for 20 min and absorbance was read at a wavelength of 540 nm against 620 nm.

[5] = test system: PEO1 ovarian cancer cells; test: Cytotoxicity (Neutral Red), PEO1 cells; assay type: cell-based, human; conditions: 24 h exposure
Experimental: as §2, §3

[6] = test system: MRC-5 fibroblasts; test: Cytotoxicity (Neutral Red), MRC-5 fibroblasts; assay type: cell-based, human; conditions: 24 h exposure
Experimental: as §2, §3

[7] = parameters: method as in PMID 17312965; conditions: cited from earlier work
[8] = test system: microsomal lipid peroxidation; parameters: method as in PMID 16822206; conditions: cited from earlier work
[9] = test system: cervical squamous carcinoma SiHa cells; parameters: method as in PMID 30783417; conditions: 50 nM, 24 h exposure; cited from earlier work
[10] = test system: gastric carcinoma AGS cells; parameters: method as in PMID 15911108; conditions: 24 h exposure, cited from earlier work
[11] = test system: MDA-MB-231 breast cancer cells; parameters: method as in PMID 34626309; conditions: 24 h exposure, cited from earlier work
[12] = test system: MCF-7 breast cancer cells; parameters: method as in PMID 34626309; conditions: 24 h exposure, cited from earlier work
[13] = test system: SKOV-3 cells; parameters: method as in PMID 25097657; conditions: 24 h exposure, cited from earlier work
[14] = test system: U251 glioma cells; parameters: method as in PMID 29436625; conditions: 24 h exposure, cited from earlier work
[15] = test system: U87MG human glioblastoma cells; parameters: method as in PMID 22552443; conditions: 24 h exposure, cited from earlier work
[16] = test system: SGC7901 human gastric adenocarcinoma cells; parameters: method as in PMID 21042755; conditions: 120 μg/mL (i.e., ca. 0.74 mM), 24 h exposure; cited from earlier work
[17] = test system: breast cancer MCF-7 cells; parameters: method as in PMID 32286702; conditions: 24 h exposure; read-out: Concentration lowering viability of MCF-7 cells to 50%; cited from earlier work
[18] = test system: breast cancer HCC-70 cells; parameters: method as in PMID 32286702; conditions: 24 h exposure; read-out: Concentration lowering viability of HCC-70 cells to 50%; cited from earlier work
[19] = test system: HO8910 xenograft tumors; parameters: method as in PMID 16675472; conditions: administered intragastrically; cited from earlier work
[20] = test system: SKOV-3 xenograft tumors; parameters: method as in PMID 16675472; conditions: administered intragastrically; cited from earlier work
[21] = test system: SKOV-3 cells; parameters: method as in PMID 16675472; conditions: cited from earlier work
[22] = in the concentration range studied

C=CCS[S+]([O-])CC=C (stereo not drawn) [Allicin, S-(prop-2-en-1-yl)prop-2-ene-1-sulfinothioate]
Antioxidant activity, ABTS^● Decolorization [1]: −0.038 ± 0.020 mol Trolox equivalents (TE)/mol compound
Antioxidant activity, DPPH^● Decolorization [2]: −0.023 ± 0.009 mol Trolox equivalents (TE)/mol compound
Antioxidant activity, FRAP [3]: −0.0014 ± 0.0016 mol Trolox equivalents (TE)/mol compound
IC50 ([4]; Homo sapiens, SK-OV-3, Neutral Red, read-out: IC50 SKOV-3): 236 µM
Effect on viability of SKOV-3 cells [4, 22]: did not significantly lower the viability
IC50 ([5]; Homo sapiens, PEO1, Neutral Red, read-out: IC50 PEO1): 282 µM
Effect on viability of PEO1 cells [5, 22]: did not significantly lower the viability
Concentration at which viability of MRC-5 cells was lowered ([6]; p < 0.05): 100 µM
IC50 ([6]; Homo sapiens, MRC5, Neutral Red, read-out: IC50 MRC-5): 120 µM
Reaction rate constant with cumene peroxyl radicals [7]: 2600 M⁻¹ s⁻¹
Termination of lipid peroxidation / prevention of induced microsomal lipid peroxidation [8]: ineffective
SiHa cell viability (decreased to) [9]: ca. 60%
IC50 ([10]; converted from μg/mL, read-out: Concentration diminishing survival of AGS cells to ca. 50%): ~62 µM
Concentration diminishing survival of AGS cells to ca. 50% [10]: 10 µg/mL
IC50 ([11]; converted from μg/mL, read-out: Concentration lowering survival of MDA-MB-231 cells by 50%): ~111 µM
Concentration lowering survival of MDA-MB-231 cells by 50% [11]: about 18 μg/mL
IC50 ([12]; converted from μg/mL, read-out: Concentration lowering survival of MCF-7 cells by 50%): ~43 µM
Concentration lowering survival of MCF-7 cells by 50% [12]: about 7 μg/mL
IC50 ([13]; converted from μg/mL, read-out: Concentration reducing viability of SKOV-3 cells to 50%): 430 to 490 µM
Concentration reducing viability of SKOV-3 cells to 50% [13]: 70 to 80 µg/mL
IC50 ([14]; converted from μg/mL, read-out: Concentration reducing viability of U251 glioma cells to 50%): 247 µM
Concentration reducing viability of U251 glioma cells to 50% [14]: ca. 40 μg/mL
IC50 ([15]; converted, read-out: Concentration reducing viability of U87MG glioblastoma cells to 50%): 550 µM
Concentration reducing viability of U87MG glioblastoma cells to 50% [15]: ca. 90 /mL μg
Decrease in the survival of SGC7901 cells [16]: ca. 25%
IC50 [17]: ~15 µM
IC50 [18]: ~10 µM

C=CCSSC[C@H](N)C(=O)O [SAMC, S-allylmercaptocysteine]
Development of xenograft tumors formed by HO8910 cells [19]: inhibited
Development of xenograft tumors formed by SKOV-3 cells [20]: inhibited
Migration of SKOV-3 cells and their invasiveness [21]: inhibited
